Results reported in PMC10287695, “Non-covalent inhibitors of thioredoxin glutathione reductase with schistosomicidal activity in vivo” (Nature Communications, 2023).
Read-outs that look alike come from different tables or passages of the source. Marks after values point to notes of the source that are not given here.

Columns and labels:
S. mansoni adult worms = test: Schistosomicidal activity ex vivo, adult worms (Cell Titer Glo), alone or with channel blockers; format: cell-based; conditions: for LD50 ex vivo S. mansoni adult: 24 h exposure, compound alone
Description: Three-week old, female Swiss-Webster mice obtained from the Charles River were housed in the Comparative Research Center of Rush University Medical Center. Mice were infected by percutaneous tail exposure to about 200 S. mansoni or 50 S. japonicum cercaria for adult worms and about 1000 cercaria for juvenile S. mansoni worms through natural transdermal penetration of the cercariae for 1 h[81].
DMSO formulated compounds were diluted with phenol red free M199 medium or RPMI medium for NTS or juvenile and adult worms, respectively, at <1% DMSO final concentrations. NTS, juvenile and adult worms from overnight cultures were tested against compounds in triplicate. Controls were treated with DMSO alone or 5 µM AF as a positive control in appropriate medium. […] Schistosome viabilities in the presence of the compounds were assessed using this formula: % Viability = Averages of Test / Averages of DMSO Control x 100.

Vero cells = test: Cytotoxicity in mammalian cells (Cell Titer Glo); format: cell-based
Description: Following overnight incubation, formulated DMSO-compound stock solutions were diluted with DMEM at <1% DMSO final concentrations. […] Vero cells treated similarly with different concentrations of PZQ, MZM and AF (Cayman Chemicals) were used as positive controls.

[1] = test system: S. mansoni newly transformed schistosomula (NTS); test: Schistosomicidal activity ex vivo, NTS (Cell Titer Glo); format: cell-based; conditions: for LD50 ex vivo S. mansoni NTS: 24 h exposure, Cell TiterGlo; for % viability: S. mansoni NTS
Description: Oncomelania hupensis subsp. hupensis, Chinese strain, infected with S. japonicum, Chinese strain, and Biomphalaria glabrata, strain NMRI, infected with S. mansoni, strain NMRI, were provided by the NIAID Schistosomiasis Resource Center for distribution through BEI Resources, NIAID, NIH. After infections were patent, snails were exposed to bright light for 1 hr to obtain cercariae. Cercariae were mechanically transformed to schistosomula. Briefly, cercariae were placed on ice for 30 min and then centrifuged at 350 × g for 10 mins. The supernatant was decanted and 2 ml of serum-free M199 medium was added to cercarial pellets and vortexed for 1 min until cercarial tails were detached. NTS were purified by layering on 4 °C Percoll gradient suspension containing Eagle’s minimum essential medium, penicillin-streptomycin (10,000 U per ml penicillin/10,000 U per ml streptomycin), and 1 M HEPES in 0.85% NaCl with cercariae suspension and centrifuged at 500 × g for 15 min. Cercarial pellets were resuspended and washed thrice in serum-free M199 medium and collected at 100 × g for 5 min. NTS (240) were transferred to U-bottom 96 well assay plates containing 200 µl of M199 medium supplemented with 5.5 mM D-glucose, penicillin-streptomycin and 5% heat inactivated fetal bovine serum and incubated at 37 °C in a 5% CO2 incubator overnight.
DMSO formulated compounds were diluted with phenol red free M199 medium or RPMI medium for NTS or juvenile and adult worms, respectively, at <1% DMSO final concentrations. NTS, juvenile and adult worms from overnight cultures were tested against compounds in triplicate. Controls were treated with DMSO alone or 5 µM AF as a positive control in appropriate medium. Worm viability was assessed at 24 or 72 h by measuring ATP content of worms using Cell Titer Glo Assay (Promega) as described. Schistosome viabilities in the presence of the compounds were assessed using this formula: % Viability = Averages of Test / Averages of DMSO Control x 100.

S. mansoni TGR = target: T1, S. mansoni TGR (Schistosoma mansoni, UniProt Q962Y6); test: S. mansoni TGR enzyme inhibition (DTNB reduction); format: biochemical; conditions: for % inhibition: TGR; for inhibition at 15 µM / inhibition at 30 µM / inhibition at 66.7 µM: read-out: TGR % inhibition; for S. mansoni TGR inhibition (%) at 66.7 µM: 6 h preincubation (enzyme + 100 µM NADPH + compound)
T1 construct: made in house
T1 sequence (Q962Y6 1-598): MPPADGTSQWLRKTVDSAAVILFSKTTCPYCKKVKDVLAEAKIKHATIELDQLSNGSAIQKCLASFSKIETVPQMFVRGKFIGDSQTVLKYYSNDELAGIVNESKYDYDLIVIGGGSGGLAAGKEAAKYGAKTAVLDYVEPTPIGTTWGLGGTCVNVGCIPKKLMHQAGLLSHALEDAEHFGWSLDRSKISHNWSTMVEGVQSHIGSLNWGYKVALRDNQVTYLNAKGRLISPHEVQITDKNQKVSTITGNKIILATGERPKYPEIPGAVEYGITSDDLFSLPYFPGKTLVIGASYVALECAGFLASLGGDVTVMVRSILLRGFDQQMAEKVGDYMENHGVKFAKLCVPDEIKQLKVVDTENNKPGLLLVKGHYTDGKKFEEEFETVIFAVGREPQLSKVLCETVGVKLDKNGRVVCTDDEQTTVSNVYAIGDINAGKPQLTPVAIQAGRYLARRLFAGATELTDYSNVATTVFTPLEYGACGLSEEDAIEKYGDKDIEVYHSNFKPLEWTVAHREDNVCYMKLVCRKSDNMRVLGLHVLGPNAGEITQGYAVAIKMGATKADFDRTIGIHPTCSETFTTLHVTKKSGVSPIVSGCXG
Description: Recombinant TGR, human TrxR1, B. malayi (Bm)TrxR and human GR proteins were expressed and purified as described[20],[69],[79]. The codon optimized sequence for P. falciparum (PfTrxR, https://www.ncbi.nlm.nih.gov/protein/CAA60574.1/) with an N-terminal 6-His tag was synthesized and inserted into pET15b (GenScript) and expressed in BL21 (DE3) cells and purified as described for human GR[20]. TGR and TrxR enzyme inhibition assays were performed in triplicate at 25 °C as described[20] in 0.1 M potassium phosphate (pH 7.4), 10 mM EDTA, 100 µM NADPH and 0.01% Tween-20. […] The reaction was started with addition of an equal volume of DTNB (6 mM) and NADPH (100 µM) and the increase in A412 during the first 3 min was recorded. […] The reaction was preincubated for 15 min. Activity was initiated with the addition of 1 mM GSSG and 100 μM NADPH and initial rates of NADPH oxidation were monitored at 340 nm. The reactions were done in triplicate. The IC50 was calculated in GraphPad Prism.

[2] = 15 min preincubation (enzyme + 100 µM NADPH + compound)
[3] = 15 minutes pre-incubation, compound 15 µM
[4] = 15 minutes pre-incubation, compound 30 µM
[5] = 15 minutes pre-incubation, compound 66.7 µM
[6] = 6 hours pre-incubation, compound 15 µM
[7] = 6 hours pre-incubation, compound 30 µM
[8] = 6 hours pre-incubation, compound 66.7 µM
[9] = 15 minutes pre-incubation, 15 µM
[10] = 15 minutes pre-incubation, 30 µM
[11] = 15 minutes pre-incubation, 66.7 µM
[12] = 6 hours pre-incubation, 66.7 µM

Row | SMILES | LD50 ex vivo S. mansoni adult (S. mansoni adult worms) | LD50 ex vivo S. mansoni NTS [1] | % viability ([1]; Conc. 1 µM) [%] | % viability ([1]; Conc. 5 µM) [%] | % viability (Vero cells; Vero cells, Conc. 5 µM) [%] | % viability (Vero cells; Vero cells, Conc. 10 µM) [%] | % viability (Vero cells; Vero cells, Conc. 25 µM) [%] | % viability (Vero cells; Vero cells, Conc. 35 µM) [%] | % viability (Vero cells; Vero cells, Conc. 50 µM) [%] | % viability ([1]; Conc. 15 µM) [%] | % viability ([1]; Conc. 50 µM) [%] | % inhibition (S. mansoni TGR; [3]) [%] | % inhibition (S. mansoni TGR; [4]) [%] | % inhibition (S. mansoni TGR; [5]) [%] | % inhibition (S. mansoni TGR; [6]) [%] | % inhibition (S. mansoni TGR; [7]) [%] | % inhibition (S. mansoni TGR; [8]) [%] | S. mansoni TGR IC50 (S. mansoni TGR; [2]) | S. mansoni TGR inhibition (%) at 66.7 µM (S. mansoni TGR) | further results
1 | CC(=O)OC[C@H]1O[C@@H]([S-])[C@H](OC(C)=O)[C@@H](OC(C)=O)[C@@H]1OC(C)=O.CCP(CC)CC.[Au+] [AF, auranofin, reference compound] | 1.1 ± 0.04 µM | 0.31 ± 0.02 µM | 18.3613 | 0.4904 | – | – | – | – | – | – | – | – | – | – | – | – | – | – | – | % viability (S. mansoni adult worms; S. mansoni adult worms, Conc. 0.5 µM): 85.422%; % viability (S. mansoni adult worms; S. mansoni adult worms, Conc. 1 µM): 43.1217%; % viability (S. mansoni adult worms; S. mansoni adult worms, Conc. 2 µM): 23.1816%; % viability (S. mansoni adult worms; S. mansoni adult worms, Conc. 5 µM): 3.259%; % viability (Vero cells; 0.5 µM): 57.3284%; % viability (Vero cells; 1 µM): 33.3378%; % viability (Vero cells; 5 µM): 0.2783%; % viability (Vero cells; 10 µM): 0.2356%; % viability (Vero cells; 20 µM): 0.164%; % viability (Vero cells; 30 µM): 0.07463%; LD50 ex vivo VERO (Vero cells; 24-hour exposure): 0.59 ± 0.11 µM; % viability ([1]; Conc. 0.25 µM): 60.0497%; % viability ([1]; Conc. 0.5 µM): 36.3261%; % viability ([1]; Conc. 2 µM): 10.7245%; IC50 (S. mansoni TGR; [2]): 7 nM
2 | Cc1oc(-c2ccccc2)nc1CN[C@@H]1C[C@@H]2C[C@H]([C@H]1C)C2(C)C [C3] | – | – | – | 6.85 | 99.3244 | 93.7147 | 77.3582 | 52.4878 | 28.6792 | 0.6968 | 0.6054 | 3.671 | 7.41 | 17.804 | 23.6178 | 33.5098 | 42.7576 | – | – | % viability ([1]; Conc. 30 µM): 0.5581%
3 | Cc1oc(-c2ccc3ccccc3c2)nc1CNC1CCCCCC1 [C5] | – | – | 80.9812 | 52.5668 | 99.0699 | 99.036 | 93.1095 | 87.9829 | 82.6807 | 62.9498 | 0.07949 | 26.4295 | 32.2766 | 38.9031 | 38.3649 | 50.2366 | 73.0458 | – | – | % viability ([1]; Conc. 35 µM): 0.09782%
4 | C[C@@H]1[C@H]2C[C@@H](C[C@H]1NCc1nc3ccccc3n1C)C2(C)C [C12] | – | – | – | – | – | – | – | – | – | – | – | – | – | – | – | – | – | – | – | % viability ([1]; 5 µM, relative to Worm + M199 control): 95.6217%; % viability ([1]; 15 µM, relative to Worm + M199 control): 91.9573%; % viability ([1]; 30 µM, relative to Worm + M199 control): 88.4326%; % viability ([1]; 50 µM, relative to Worm + M199 control): 85.8655%; TGR % inhibition (S. mansoni TGR; [9]): 0.03253%; TGR % inhibition (S. mansoni TGR; [10]): 0.1888%; TGR % inhibition (S. mansoni TGR; [11]): 0.4169%; TGR % inhibition (S. mansoni TGR; 6 hours pre-incubation, 15 µM): 0.1402%; TGR % inhibition (S. mansoni TGR; 6 hours pre-incubation, 30 µM): 1.567%; TGR % inhibition (S. mansoni TGR; [12]): 2.052%
5 | C[C@@H]1[C@H]2C[C@@H](C[C@H]1NCc1cc(-c3ccccc3)[nH]n1)C2(C)C [Compound 11] | – | >50^a µM | – | – | – | – | – | – | – | – | – | – | – | – | – | – | – | n.i.^e | n.i.^e | viability at 5 µM (S. mansoni adult worms; Schistosoma mansoni, S. mansoni adult worms, 5 µM, relative to Worm + RPMI control, read-out: % viability): 97.5%; viability at 15 µM (S. mansoni adult worms; Schistosoma mansoni, S. mansoni adult worms, 15 µM, relative to Worm + RPMI control, read-out: % viability): 93.7%; viability at 30 µM (S. mansoni adult worms; Schistosoma mansoni, S. mansoni adult worms, 30 µM, relative to Worm + RPMI control, read-out: % viability): 89.4%; viability at 50 µM (S. mansoni adult worms; Schistosoma mansoni, S. mansoni adult worms, 50 µM, relative to Worm + RPMI control, read-out: % viability): 88.5%; inhibition at 15 µM (S. mansoni TGR; [9]): -0.793%; inhibition at 30 µM (S. mansoni TGR; [10]): 0.411%; inhibition at 66.7 µM (S. mansoni TGR; [11]): 1.81%; inhibition at 15 µM (S. mansoni TGR; 6 hours pre-incubation, 15 µM): 0.749%; inhibition at 30 µM (S. mansoni TGR; 6 hours pre-incubation, 30 µM): 1.2%; inhibition at 66.7 µM (S. mansoni TGR; [12]): 5.65%
6 | C[C@@H]1[C@H]2C[C@@H](C[C@H]1NCc1nc3ccccc3n1C)C2(C)C [Compound 12] | >50^a µM | >50^a µM | – | – | – | – | – | – | – | – | – | – | – | – | – | – | – | n.i.^e | n.i.^e | –
